The values that follow come from patent US20090099174A1, “COMBINATION 059” (ASTRAZENECA AB, priority 2007, published 2009).

One test relates to A2058 cell line. The experiment in a line: 96-hour MTS viable cell number assay, A2058 cell line (monotherapy and concurrent combination). It is filed as cell-based. Conditions: Homo sapiens, 96-hour viable cell number endpoint by MTS, read-out: IC50 monotherapy (Geomean). An excerpt:
The objective of this assay was to determine the in-vitro combination interaction when combining AZD6244 or 2-(2-fluoro-4-iodophenylamino)-N-(2-hydroxyethoxy)-1,5-dimethyl-6-oxo-1,6-dihydropyridine-3-carboxamide concurrently with Compound A or Rapamycin in the A2058, NCI-H727, Calu-6, NCI-H2291, NCI-H23, A549 and NCI-H460 cell lines using a 96-hour viable cell number endpoint (MTS).
The A2058 cell line was routinely cultured and assayed in DMEM (phenol red free)+10% Foetal Calf Serum (FCS)+1% glutamine. The A2058 cell line is wild type for HRAS, KRAS and NRAS and mutant for the BRAF V600E mutation.
MTS viable cell number assays were carried out to determine seeding densities required for 96 hours of exponential growth. Cells were seeded into 96-well plates at their pre-determined seeding density allowing for log phase growth. After 4-hours cells were dosed with monotherapy AZD6244, 2-(2-fluoro-4-iodophenylamino)-N-(2-hydroxyethoxy)-1,5-dimethyl-6-oxo-1,6-dihydropyridine-3-carboxamide, Compound A, or Rapamycin using the Hydra/ECHO 550 platform. Following incubation with compound for 96-hours viable cell number was determined using an MTS viable cell number (Promega™) endpoint.
Concurrent combination: Cells were seeded into 96-well plates at the above-determined seeding density allowing for log phase growth. After 4 hours cells were dosed concurrently with
Non-linear MEA (Median Effect Analysis): The combination interaction between 2 active agents, each with well defined IC50 monotherapy dose responses was assessed using equal inhibitory effect ratios of the two agents (IC60, IC50, IC40, IC30, IC20, IC10). A combination index (CI)<0.85 indicates a synergistic interaction, CI 0.85-1.2 additivity and a CI>1.2 antagonism.
That is a fixed dose of the partially active agent (in MTS assays) was applied across the full dose response of the active agent. Relative potency is defined as the ratio of the combination IC50 to the monotherapy IC50.

The test system of another test is Calu-6 xenografts. The experiment in a line: Calu-6 tumour xenograft growth in nude mice. It is filed as in vivo. On the procedure: (§1) LoVo cells were grown in DMEM (Gibco) 10% FCS 1% Glutamine medium and HCT116 cells were grown in McCoys 5A 10% FCS 1% Glutamine, A549a and CaLu-6 cells were grown in RPMI1640 10% FCS 1% Glutamine. […] cells were implanted into the flank of nude mice (LoVo no matrigel, HCT-116, Calu-6 and A549a plus 50% matrigel).
(§2) When mean tumour size reached approximately 0.2 cm^3, the mice were randomized into control and treatment groups. The treatment groups received either 25 or 50 mg/kg AZD6244 (vehicle: HPMC/Tween milled overnight), or 20 mg/kg Compound A (vehicle 10% DMSO, 90% propylene glycol) by oral gavage, Rapamycin was given 4 mg/kg once weekly (10% DMSO-10% Cremaphor-10% Ethanol-70% water for injection. When administered in combination, Compound A was given 2 hours after the oral dose of the other compound. The control group received vehicle (10% DMSO 90% propylene glycol) alone, once daily by oral gavage.
(§3) Tumour volumes (measured by caliper), animal body weight and tumour condition were recorded twice weekly for the duration of the study. Mice were sacrificed by CO2 euthanasia. The tumour volume was calculated (taking length to be the longest diameter across the tumour and width to be the corresponding perpendicular diameter using the formula: (length×width)×√(length×width)×(π/6). Growth inhibition from the start of treatment was assessed by comparison of the differences in tumour volume between control and treated groups. Because the variance in mean tumour volume data increases proportionally with volume (and is therefore disproportionate between groups), data were log-transformed to remove any size dependency before statistical evaluation.
(§4) Statistical significance was evaluated using a one-tailed, two-sample t test. To analyze the data from the combination study, the statistical tool SigmaStat has been used. A two-way ANOVA test was performed using the factors concentration of drug A and concentration of drug B. The data analyzed was Log (final tumour volume)-Log (initial tumour volume) calculated for each individual group at the end of the study. […]

The next test relates to HCT-116 xenografts. The experiment in a line: HCT-116 tumour xenograft growth in nude mice. It is filed as in vivo. On the procedure:
as §1
When mean tumour size reached approximately 0.2 cm^3, the mice were randomized into control and treatment groups. […]
as §3, with “Mice were sacrificed by CO2 euthanasia.” left out
Statistical significance was evaluated using a one-tailed, two-sample t test. […]

The test system of the next test is Calu-6 cell line. The experiment in a line: 96-hour MTS viable cell number assay, Calu-6 cell line (monotherapy and combination). The settings on record: Homo sapiens, Calu-6, 96 h, read-out: IC50 monotherapy (Geomean).
The next test has as its system NCI-H727 cell line. In words: 96-hour MTS viable cell number assay, NCI-H727 cell line (monotherapy and combination). The settings on record: Homo sapiens, NCI-H727, 96 h, read-out: IC50 monotherapy (Geomean).
A further test has as its system NCI-H460 cell line. In words: 96-hour MTS viable cell number assay, NCI-H460 cell line (monotherapy and combination). Conditions: for IC50: Homo sapiens, NCI-H460, 96 h, read-out: IC50 monotherapy (Geomean).
The subject of another test is A549a xenografts. In words: A549a tumour xenograft growth in nude mice. It is filed as in vivo. The method, then: as §1, §2, §3, §4
The subject of another test is NCI-H2291 cell line. The experiment in a line: 96-hour MTS viable cell number assay, NCI-H2291 cell line (monotherapy and combination). Conditions: for IC50: Homo sapiens, NCI-H2291, 96 h, read-out: IC50 monotherapy (Geomean).
The next test concerns NCI-H23 cell line. The experiment in a line: 96-hour MTS viable cell number assay, NCI-H23 cell line (monotherapy and combination). The settings on record: for IC50: Homo sapiens, NCI-H23, 96 h, read-out: IC50 monotherapy (Geomean).
In the next test the test system is A549 cell line. The experiment in a line: 96-hour MTS viable cell number assay, A549 cell line (monotherapy and combination). The settings on record: for IC50: Homo sapiens, A549, 96 h, read-out: IC50 monotherapy (Geomean).
A further test has as its system LoVo xenografts. In words: LoVo tumour xenograft growth in nude mice. It is filed as in vivo. The method, then: as §1, §2, §3
Statistical significance was evaluated using a one-tailed, two-sample t test. To analyze the data from the combination study, the statistical tool SigmaStat has been used. A two-way ANOVA test was performed using the factors concentration of drug A and concentration of drug B. The data analyzed was Log (final tumour volume)-Log (initial tumour volume) calculated for each individual group at the end of the study. This tool is used to assess whether there is a main effect of drug A, a main effect of drug B plus a significant interaction between the two compounds A and B (eg. one compound influences the effect of the other compound) which may be interpreted as antagonism, additivity or synergism.

Another test deals with pERK 1/2(Thr202/Tyr204). The experiment in a line: pharmacodynamic effect of AZD6244 against pERK 1/2. It is filed as cell-based.
The mark [1] stands for this setting: 20 mg/kg Compound A, oral gavage.

SMILES strings stand for the structures.

Method for A549 cell line: (§5) The NCI-H727, Calu-6, NCI-H2291, NCI-H23, A549 and NCI-H460 cell lines were routinely cultured and assayed in RPMI (phenol red free)+10% Foetal Calf Serum (FCS)+1% glutamine.
(§6) MTS viable cell number assays were carried out to determine seeding densities required for 96 hours of exponential growth. Cells were seeded into 96-well plates at their pre-determined seeding density allowing for log phase growth. […] Following incubation with compound for 96-hours viable cell number was determined using an MTS viable cell number (Promega™) endpoint.
Method for Calu-6 cell line: as §5, §6
Method for NCI-H2291 cell line: as §5, §6
Method for NCI-H23 cell line: as §5, §6
Method for NCI-H460 cell line: as §5, §6
Method for NCI-H727 cell line: as §5, §6

`Cc1cc(C(=O)NOCCO)c(Nc2ccc(I)cc2F)n(C)c1=O` [2-(2-fluoro-4-iodophenylamino)-N-(2-hydroxyethoxy)-1,5-dimethyl-6-oxo-1,6-dihydropyridine-3-carboxamide]: in the test with A2058 cell line, the IC50 turned out to be 25 nM.

For `COc1ccc(-c2ccc3c(N4CCOC[C@@H]4C)nc(N4CCOC[C@@H]4C)nc3n2)cc1CO` [Compound A, [5-[2,4-bis[(3S)-3-methylmorpholin-4-yl]pyrido[5,6-e]pyrimidin-7-yl]-2-methoxyphenyl]methanol], the “reduction in geometric mean delta tumour volume compared with the vehicle treated control” value amounted to 44.9% in the test on Calu-6 xenografts (20 mg/kg once daily Compound A) and 94.1% in the test with A549a xenografts (20 mg/kg once daily Compound A). Besides, the figures for the “reduction in geometric mean delta tumour volume compared with the vehicle control” value in the test on HCT-116 xenografts (setting [1]) and with LoVo xenografts (setting [1]) were 24% and 66%, respectively. Also, the IC50 in the test on Calu-6 cell line was 50 nM; in the test on NCI-H727 cell line, 68 nM; with NCI-H460 cell line, 0.026 µM; in the test on NCI-H2291 cell line, 23 nM; in the test with NCI-H23 cell line, 30 nM; with A2058 cell line it was 46 nM. Also, the IC50 in the test on A549 cell line was 0.037 µM.

For `Cn1cnc2c(F)c(Nc3ccc(Br)cc3Cl)c(C(=O)NOCCO)cc21` [AZD6244], the “reduction in geometric mean delta tumour volume compared with the vehicle treated control” value was 93.2% in the test on Calu-6 xenografts (50 mg/kg once daily AZD6244), 53.4% in the test on A549a xenografts (25 mg/kg once daily AZD6244) and 38.7% in the test with LoVo xenografts (25 mg/kg twice daily AZD6244). Besides, the “ED90, pharmacodynamic effect against pERK 1/2(Thr202/Tyr204)” value with pERK 1/2(Thr202/Tyr204) is reported as 333 nM. The “ED95, pharmacodynamic effect against pERK 1/2(Thr202/Tyr204)” value in the test on pERK 1/2(Thr202/Tyr204) was 1000 nM. Moreover, the EC50 in the test with pERK 1/2(Thr202/Tyr204) (read-out: ED50, pharmacodynamic effect against pERK 1/2(Thr202/Tyr204)) worked out at 20 nM. Also, the “reduction in geometric mean delta tumour volume compared with the vehicle control” value in the test on HCT-116 xenografts (25 mg/kg AZD6244, oral gavage) stood at 59%; in the test with LoVo xenografts (50 mg/kg AZD6244, oral gavage), 43%. Further, the IC50 amounted to 257 nM in the test with Calu-6 cell line; 36 nM in the test on NCI-H727 cell line; 32.4 µM in the test on NCI-H460 cell line; 704 nM in the test with NCI-H2291 cell line; 1840 nM in the test with NCI-H23 cell line; 526 nM in the test with A2058 cell line. Moreover, the IC50 in the test on A549 cell line turned out to be 12.4 µM.

Turning to `CO[C@H]1C[C@@H]2CC[C@@H](C)[C@@](O)(O2)C(=O)C(=O)N2CCCC[C@H]2C(=O)O[C@H]([C@H](C)C[C@@H]2CC[C@@H](O)[C@H](OC)C2)CC(=O)[C@H](C)/C=C(\C)[C@@H](O)[C@@H](OC)C(=O)[C@H](C)C[C@H](C)/C=C/C=C/C=C/1C` [Rapamycin], the entries for the “reduction in geometric mean delta tumour volume compared with the vehicle treated control” value in the test on Calu-6 xenografts (4 mg/kg once weekly Rapamycin), in the test on A549a xenografts (4 mg/kg once weekly Rapamycin) and in the test with LoVo xenografts (4 mg/kg Rapamycin) were 37.2%, 69.5% and 38.2%, respectively. In addition, the IC50 was more than 10000 nM with Calu-6 cell line; more than 10000 nM with NCI-H727 cell line; more than 10 µM in the test with NCI-H460 cell line; more than 10000 nM in the test with NCI-H2291 cell line; more than 10000 nM with NCI-H23 cell line; more than 10000 nM in the test on A2058 cell line. The half-inhibitory concentration (IC50) in the test on A549 cell line was more than 10 µM. Besides, the “growth inhibitory effect reached” value in the test on NCI-H460 cell line (NCI-H460, regardless of the presence of AZD6244) is recorded as less than 50%; in the test with NCI-H2291 cell line (NCI-H2291, regardless of the presence of AZD6244), less than 50%; in the test on NCI-H23 cell line (NCI-H23, regardless of the presence of AZD6244) it was less than 50%; in the test on A549 cell line (A549, regardless of the presence of AZD6244), less than 50%.
